# Source: a melting point compilation (Tetko et al.; mined from patent text by program, amines drawn as free bases though some values may be those of a salt)
row,melting point,Compound
1,204 °C,N#Cc1c(N2CCN(C(=O)c3cccs3)CC2)c2cc(Cl)cnc2n(Cc2cccc(F)c2)c1=O
2,110 to 112 °C,Cc1sc(N2C(=O)c3ccccc3C2=O)c(C(=O)c2ccc(Cl)cc2)c1CN1CCN(c2ccc(F)cc2)CC1
3,92.9 °C,CNC(=O)CN(c1ccc(Cl)cc1Cc1c(F)cccc1F)S(=O)(=O)c1ccc(OC)c(OC)c1
4,142 to 144 °C,O=C1N(Cc2ccc(Cl)s2)c2ccc(F)cc2C12COc1cc3c(cc12)OCO3 (stereo not drawn)
5,227 to 229 °C,C[C@H](c1ccccc1)n1c(O)nc2c(Cl)nc3ccccc3c21
6,143 to 145 °C,c1ccc(Cn2c(-c3ccc4c(c3)OCO4)nc3ccccc32)cc1
7,298 °C,Cn1cc(C(=O)O)c(=O)c2cc3cc(F)c(N4CCNC(c5ccccc5)C4)c(F)c3nc21 (racemic)
8,149 to 151 °C,Oc1ccc(C(c2ccc(O)cc2)c2ccccc2CN2CCN(c3ccccc3Cl)CC2)cc1
9,202 to 204 °C,O=C(O)Cc1ccc2c(c1)C(=O)C(=Cc1ccccc1)C2
10,99 to 100 °C,CC(C)Oc1ccc(CCCOc2cc(CCC(=O)O)n(Cc3ccccc3)n2)c(Oc2ncc(C(F)(F)F)cc2Cl)c1
11,172 °C,O=C(O)c1cc(N2CCN(Cc3ccccc3)CC2)ccc1[N+](=O)[O-]
12,247 to 248 °C,CCc1ccc2c(C3=C(c4cn(C)c5ccccc45)C(=O)NC3=O)cn(C)c2c1
13,110 to 114 °C,Cc1ccn(-c2ccc(C(=O)C3c4ccccc4NC=C4N=NNN43)c(Cl)c2)n1 (stereo not drawn)
14,302 to 304 °C,Cc1nn(-c2ccccc2)c2[nH]c(=O)c3ccccc3c12
15,160 to 162 °C,O=C(O)CC1ON(C(=O)OCc2ccccc2)C(=O)C1N1C(=O)c2ccccc2C1=O (stereo not drawn)
16,95 to 97 °C,COc1ccc2c(c1)c(CC(=O)O)c(C)n2C(=O)c1ccc(Cl)c(Cl)c1
17,180 to 183 °C,O=C(O)c1ccccc1Nc1ccc(O)c(Cl)c1
18,195 to 196 °C,OC(CCc1ccccc1)c1cnc2sc3cc(F)ccc3n12 (stereo not drawn)
19,65 to 66 °C,COC(=O)C(=Cc1cc(OC)cc(OC)c1)c1ccc(Oc2ccc(CC3SC(=O)NC3=O)cc2)cc1 (stereo not drawn)
20,122 to 124 °C,CCC1(C)OC(c2ccc(S(C)(=O)=O)cc2)=C(c2cc(F)cc(F)c2)C1=O (stereo not drawn)
21,167 to 171 °C,COc1ccc(C(=O)Nc2ccccc2)cc1NCc1cccc(C(F)(F)F)c1
22,218 to 220 °C,COC(=O)CCn1c2ccc(O)cc2c2c3c(c(-c4ccccc4Cl)cc21)C(=O)NC3=O
23,204 to 206 °C,O=C(c1ccc(Br)cc1)N1CC(=O)N2CCc3ccccc3C2C1 (stereo not drawn)
24,144 to 147 °C,CS(=O)(=O)Nc1cccc(Nc2nc(NCc3cccnc3)c3nc[nH]c3n2)c1
25,130 to 133 °C,O=C(NCCSc1ccccc1)n1cc(F)c(=O)[nH]c1=O
26,227 to 228 °C,Nc1cc(Cc2n[nH]c(=O)c3ccccc23)ccc1Cl
27,215 to 216 °C,Cc1ncc2c(n1)-c1ccc(Cl)cc1C(c1ccccc1Cl)=[N+]([O-])C2
28,127 to 130 °C,O=C1c2ccccc2C(=O)N1C(Cc1ccccc1)C[PH](=O)O (stereo not drawn)
29,157 to 158 °C,C=C1N(S(=O)(=O)c2ccc(C)cc2)C(=O)OC12CCN(Cc1ccccc1)CC2
30,208 to 210 °C,N#CC1C(=O)NC(=O)C12C(=O)N(Cc1ccc(Br)cc1F)c1ccccc12 (stereo not drawn)

# The remaining lines, values behind:
row,Compound,melting point
1,O=C1C=CC(=Nc2ccccc2C(=O)N2CCCCC2)C=C1,74 to 76 °C
2,C=CCc1c(O)c(Br)cc2c1[C@H](CCNC(=O)CC)CC2,85 to 87 °C
3,CC(C)(C)C(NC(=O)c1ccc(Cl)cc1)NC(=NC#N)Nc1c(F)cccc1F (stereo not drawn),211 to 213 °C
4,CCOC(=O)c1nc2cc(NC(=O)OC(C)(C)C)ccn2n1,220 to 222 °C
5,COC(=O)CCNC(=O)COc1ccc2c(c1)CC(NS(=O)(=O)c1ccc(Cl)cc1)C2 (stereo not drawn),126 to 128 °C
6,CCCC(C)(CO)c1cc(Cl)nnc1Cl (stereo not drawn),99 to 100 °C
7,Cc1cc2n(C)c3cc(Cl)ncc3c(=O)n2n1,> 300 °C
8,CCC(Cl)Cc1sc(O)nc1C (stereo not drawn),84 to 85 °C
9,CN1Cc2c(-c3nnc(CCl)o3)ncn2-c2ccccc2C1=O,221 to 222 °C
10,CCCCCCCC(=O)c1ccc(CCC(C)(COC(C)=O)NC(C)=O)cc1 (stereo not drawn),88 to 89 °C
11,CN1C(=O)C(F)N=C(c2ccccc2Cl)c2ccc(Cl)cc21 (stereo not drawn),204 to 205 °C
12,O=C(O)C1=Cc2cc(C(O)C(F)(F)F)ccc2OC1C(F)(F)F (stereo not drawn),114 to 120 °C
13,Cc1ncc(C(=O)N2CCCCC2)s1,68.7 °C
14,Cn1c(=O)c2c(ncn2CCCN2CCC(NC(=O)c3ccc(F)cc3)CC2)n(C)c1=O,192 to 193 °C
15,COC(=O)c1ccc(OCCNC(=O)c2ccc(Cl)cc2)cc1,125 to 127 °C
16,O=C(CBr)Cc1c(F)cccc1Cl,47 °C
17,COC(=O)c1c(OC)cc(C=O)cc1OC,113 to 114 °C
18,Cc1nc(-c2ccc(-c3cnc4[nH]c(=O)n(CCC5CCOCC5)c4n3)cc2)n[nH]1,290 to 292 °C
19,N#Cc1ccc(CC(NC(=O)C(Cc2ccccc2)S(=O)(=O)Nc2ccc3ccccc3c2)C(=O)N2CCCCC2)cc1 (stereo not drawn),210 °C
20,CNC(=S)NS(=O)(=O)c1cc(CCNC(=O)c2cc(Cl)ccc2OC)ccc1-c1ccc(OC)cc1,185 to 188 °C
21,CCCCCC(CC(=O)Nc1cc(C(N)=O)ccc1C(C)(C)C)c1ccc(OCCC(N)S(C)(=O)=O)cc1OC (stereo not drawn),77 to 79 °C
22,O=C(O)CP(=O)(O)CCCc1ccccc1,118 to 119 °C
23,CC(C)(C)OC(=O)NCc1nc2c(C(F)(F)F)cccc2c(O)c1C(=O)Nc1nccs1,238 °C

row,Compound,melting point
1,Cc1nc(NC(=O)c2cnn3c(C(F)(F)F)cc(-c4ccc(C(F)(F)F)cc4)nc23)sc1S(=O)(=O)NC(C)(CO)CO,250 °C
2,CCN(CC)c1ccc(N(Cc2ccc(N)c(OC)c2)C(N)=O)c(C)c1,110 to 115 °C
3,CN1Cc2c(Br)cc3c(c2C1)NC(=O)C3=O,> 300 °C
4,C=CCOc1ccccc1C1C(C(=O)OCC)=C(C)NC(C#N)=C1C(=O)OCC (stereo not drawn),143 to 145 °C
5,CN(C)CCNc1ccc(S(C)(=O)=O)cc1[N+](=O)[O-],130 to 131 °C
6,CC(C)C[C@H](NC(=O)c1ccco1)C(=O)N[C@@H](C(C)C)[C@@H](O)c1c(-c2ccccc2)c1=O,101 to 105 °C
7,COc1cc(CO)c(-c2ccc(OCCC(C)CCCC(C)C)cc2)cc1CO (stereo not drawn),101 °C
8,CS(=O)c1ccc(C(=O)c2cnoc2C2CC2)c(Cl)c1 (stereo not drawn),117 °C
9,CCCCCCCCCCCNC(=S)NCCCCCCCCCCC,70 to 72 °C
10,O=c1oc(-c2ccccc2)cc(O)c1C(Sc1ccccc1)c1ccc2ccccc2c1 (stereo not drawn),98 to 101 °C
11,O=C(Nc1ccc(C(=O)N2CCCCc3sccc32)cc1)c1ccc(Cl)c(Cl)c1,154 to 160 °C
12,CC1(C)SCN(CCCCN2CCN(c3n[nH]c4ccccc34)CC2)C1=O,139 to 142 °C
13,COC(=O)CCn1cc(-c2cccnc2)c2cc([N+](=O)[O-])ccc21,123 to 125 °C
14,Nc1c([N+](=O)[O-])sc2cc(Cl)ccc12,243 to 245 °C
15,Cc1oc(-c2ccco2)nc1/C=C/c1ccc(C=O)cc1,209 to 210 °C
16,CCOC(=O)c1cnoc1-c1ccc(F)c(Cl)c1,106 to 107 °C
17,OCCOc1cccc2cnccc12,64 to 67 °C
18,NS(=O)(=O)c1cccc(C(=O)Nc2ccc(-n3nc(C(F)(F)F)cc3C(F)(F)F)cc2)c1,177 to 178 °C
19,CCC(C#N)=C1CCN(c2ccc(N3C[C@H](CNC(C)=S)OC3=O)cc2F)CC1,174 to 176 °C
20,O=C1c2ccccc2C(O)N1CCCCCCl (stereo not drawn),77 to 79 °C
21,O=S(=O)(CCCCCl)c1ccccc1,55 to 58 °C
22,O=C(NCCCc1ccncc1)N(CCC12CC3CC(CC(C3)C1)C2)CC(F)(F)F,106 to 107 °C
23,CCCc1c(OCCCOc2ccc(-c3nnn[nH]3)cc2Cl)ccc(C(C)=O)c1O,214 to 216 °C

row,Compound,melting point
1,C=C1N(CCC)C(=O)OC12CCN(Cc1ccccc1)CC2,70 to 71 °C
2,Oc1cccc([C@H]2CCCC[C@H]2NCCCCc2ccccc2)c1 (racemic),115 to 116 °C
3,CCOC(=O)c1c(C(C)C)c[nH]c1C,67 to 68.5 °C
4,C=CCN1C(=O)CC(=O)N(c2ccccc2)c2cc(Cl)ccc21,199 to 201 °C
5,O=C1CC(O)c2c1cc[nH]c2=O (stereo not drawn),200 °C
6,C1=C(c2cccs2)CCN(CCCSc2ccncc2)C1,86 to 87 °C
7,COc1nc(OC)c(C=CC(C)=O)c(N(C)C)n1,116 °C
8,CCC(CC)Oc1cc(C)nc(Nc2c(C)cc(C)cc2C)c1N,73 to 75 °C
9,CC1(C)COc2cc(O)c(C=O)cc21,100 to 102 °C
10,CC(C)COC(=O)Sc1ccc(-c2ccc(C(CCl)NC(=O)c3c(F)cccc3F)cc2)cc1 (racemic),171 to 173 °C
11,CC1=NN=C(c2ccc([N+](=O)[O-])c(C)c2)c2cc3c(cc2C1)OCO3,189 to 194 °C
12,CC=C1C(=O)N2C(C(=O)OCc3ccc([N+](=O)[O-])cc3)=C(SCCNC(=O)OCc3ccc([N+](=O)[O-])cc3)CC12 (stereo not drawn),160 to 161 °C
13,Cc1cccc(-n2nc(C)cc2-c2ccnc(S(C)(=O)=O)c2)c1,140 to 142 °C
14,CC(C)N(C[C@H](O)COc1ccc(OCc2ccccc2)cc1)S(C)(=O)=O,96 to 97 °C
15,Cc1noc(NS(=O)(=O)c2ccc(Cl)c(Cl)c2)c1Br,144 to 146 °C
16,c1ccc(Nc2ccc(Cc3ccc(Nc4ccccc4)c4ccccc34)c3ccccc23)cc1,154 to 157 °C
17,CCOC(=O)c1[nH]cnc1Cc1ccccc1,149 °C
18,Cn1cc(-c2cc3cccnc3[nH]2)c2cc(OCC(=O)O)ccc21,> 300 °C
19,COc1nc2cc(Cl)c(F)c(CS(N)(=O)=O)c2nc1OC,227 to 228 °C
20,CC1=CC(OC(=O)c2ccc(N)c(N)c2)C(O)C(C)(C)CC1=O (stereo not drawn),136 to 137 °C
21,COC(=O)c1nc2nc(C)c(C)c(S)n2n1,206 to 207 °C
22,CCN1CC(CCN2CCOCC2)N(C)c2ccccc2C1=O (stereo not drawn),128 to 148 °C
